Assay [1] can be described thus: Inhibition of capsid protein in lamivudine/entecavir-resistant Hepatitis B virus harboring rtL180M/rtM204V/rt184L mutant infected in human HepG2.2.15 cells assessed as reduction in viral DNA level measured after 72 hrs by PCR analysis.
Assay [2] in a line: Inhibition of capsid protein in Hepatitis B virus infected in human HepG2.2.15 cells assessed as reduction in viral DNA level at 4 uM supplemented with fresh medium containing compound every 2 days and measured after 6 days by RT-PCR analysis.

The values below come from BindingDB's records for doi:10.1016/j.ejmech.2019.05.014 (Xuzhou Medical University, 2019).

For the compound `CCN(CC)CCOc1ccc2nc(SCc3ccccc3)n(Cc3cccs3)c(=O)c2c1`, the values for the 50% inhibitory concentration (IC50) in assay [1] and in assay [2] were 0.84 µM and 0.71 µM, respectively.

On to `CN(C)CCOc1ccc2nc(SCc3ccccc3)n(Cc3cccs3)c(=O)c2c1`, for which the IC50 in assay [1] worked out at 1.9 µM; in assay [2] it was 1.54 µM.

As to `COc1ccccc1CSc1nc2ccccc2c(=O)n1Cc1cccs1`, in assay [2], the IC50 came to 2.81 µM.

Consider `COc1ccccc1CSc1nc2ccc(F)cc2c(=O)n1Cc1cccs1`, for which the IC50 in assay [2] was 2.48 µM.

On to `COc1ccc(C(C)=O)cc1CSc1nc2ccccc2c(=O)n1Cc1cccs1`, for which the IC50 in assay [2] turned out to be 4.07 µM.

For the compound `CCN(CC)CCOc1ccc2nc(SCc3ccccc3OC)n(Cc3cccs3)c(=O)c2c1`, the IC50 in assay [2] came to 1.93 µM.

With `Nc1ccn([C@@H]2CS[C@H](CO)O2)c(=O)n1` [Epivir], the results for the IC50 in assay [1] and in assay [2] were greater than 100 µM and less than 0.1 µM, respectively.

A word on the IC50: it is the concentration at which inhibition is half-maximal.
